“Also recorded” adds a separate entry of the source.
Experiments:
[1] = Watersolubility (literature / general statement); format: physicochemical; conditions: water, new compound of the Formula I
Pseudomonas Aeruginosa = assay: Minimal inhibiting concentration (MIC), agar-diffusion technique, series diluting method; conditions: norfloxacin dissolved in dimethyl-sulphoxide, THA salt in water
Staphylococcus aureus = assay: as above; conditions: norfloxacin dissolved in dimethyl-sulphoxide, THA salt in water
[2] = Absorption by the organism / through the intestines; format: in vivo; conditions: compound according to the invention; no test data shown
E. Coli = assay: Minimal inhibiting concentration (MIC), agar-diffusion technique, series diluting method; format: cell-based; conditions: in vitro; norfloxacin dissolved in dimethyl-sulphoxide, THA salt in water; listed as Norfloxacin-THA-salt
[3] = because of the low solubility; cited from earlier work
[4] = system: Pseudomonas aeruginosa and gram positive and gram negative bacteria; conditions: Antimicrobial Agents and Chemotherapy 1980, 17, 103-108; cited from earlier work
[5] = in vitro, listed as Norfloxacin-THA-salt

CCn1cc(C(=O)O)c(=O)c2cc(F)c(N3CCNCC3)cc21 [Compound of the Formula I, N,N,N-trimethyl-2-hydroxyethyl-ammonium-[1-ethyl-6-fluoro-4-oxo-7-(1-piperazinyl)-1,4-dihydro-quinoline-3-carboxylate]]
solubility [1]: > 1000 mg/mL | MIC value (Pseudomonas Aeruginosa; [5]): 0.25 to 0.5 µg/mL | MIC value (Staphylococcus aureus; [5]): 0.25 µg/mL | absorption (in words) [2]: better absorption; also recorded: quick absorption; also recorded: excellent absorption | biological utilization [2]: good biological utilization | MIC value (E. Coli): 0.05 to 0.25 µg/mL

CCn1cc(C(=O)O)c(=O)c2cc(F)c(N3CCNCC3)cc21 [Norfloxacin, 1-ethyl-4-oxo-6-fluoro-7-(1-piperazinyl)-1,4-dihydro-quinoline-3-carboxylic acid, reference compound]
MIC (Pseudomonas Aeruginosa; Pseudomonas aeruginosa, read-out: MIC value, in vitro): 0.5 to 0.75 µg/mL | MIC (Staphylococcus aureus; Staphylococcus aureus, read-out: MIC value, in vitro): 0.25 to 0.5 µg/mL | material absorbed going through the intestines [3]: about 40% | activity in the therapy of urethral infections [4]: good activity
